Experiments:
[1] = biological target: T1, Biotinylated Human ACE2, His, Avitag protein (Homo sapiens, UniProt Q9BYF1); test: Surface plasmon resonance (SPR) multiple cycle kinetics (MCK) direct binding; settings: 25° C., 6.25 nM to 100 nM analyte, Langmuir (1:1) model
T1 construct: His; purchased ACROBiosystems AC2-H82E6
Method: 3. Affinity Determination by Surface Plasmon Resonance (SPR) Via Multiple Cycle Kinetics (MCK)
Binding of bicyclic peptides of the invention to Biotinylated Human ACE2, His, Avitag™ protein (ACROBiosystems, AC2-H82E6) was assessed by a MCK analysis. Experiments were performed at 25° C. on a Biacore T200 (Cytiva) running Biacore T200 Control software V2.0.1 and Evaluation software V3.0 (Cytiva). HBS-EP+(Cytiva) was used as running buffer as well as for ligand and analyte dilutions. Biotin CAPture reagent was loaded onto a Series S Sensor CAP Chip (Cytiva) followed by loading of biotinylated ACE2 at a flow rate of 2 μl/min. The surface was then allowed to stabilise.
MCK data was obtained using bicyclic peptides of the invention as analytes injected at a flow rate of 30 μl/min to minimise any potential mass transfer effects. A five point, two-fold dilution range from 6.25 nM to 100 nM of analyte was prepared in running buffer. For each concentration, the association phases were monitored for 250 seconds and the dissociation phase was measured for 450 seconds. Regeneration of the sensor chip surface was conducted between cycles using the CAP Chip standard regeneration buffer (Cytiva). Multiple repeats of a blank and of Bicycle were programmed into the kinetic run in order to check the stability of both the surface and analyte over the kinetic cycles. […]

[2] = biological target: T1, Biotinylated Human ACE2, His, Avitag protein; test: Surface plasmon resonance (SPR) single cycle kinetics (SCK) direct binding; settings: 25° C., Langmuir (1:1) model
Method: 2. Affinity Determination by Surface Plasmon Resonance (SPR) Via Single Cycle Kinetics (SCK)
Binding of bicyclic peptides of the invention to Biotinylated Human ACE2, His, Avitag™ protein (ACROBiosystems, AC2-H82E6) was assessed by a SCK analysis. Experiments were performed at 25° C. on a Biacore T200 (Cytiva) running Biacore T200 Control software V2.0.1 and Evaluation software V3.0 (Cytiva). HBS-EP+ (Cytiva) was used as running buffer as well as for ligand and analyte dilutions. Biotin CAPture reagent was loaded onto a Series S Sensor CAP Chip (Cytiva) followed by loading of the ACE2 protein at a flow rate of 2 μl/min. The surface was then allowed to stabilise.
SCK data was obtained using bicyclic peptides of the invention as analytes injected at a flow rate of 30 μl/min to minimise any potential mass transfer effects. A minimum four point 2-fold dilution of analyte based on the affinity of the bicyclic peptides of the invention in running buffer was used without regeneration between each concentration. The association phases were monitored for 100 seconds for each of the four injections of increasing concentrations of analyte and a single dissociation phase was measured for 400 seconds following the last injection of analyte. Regeneration of the sensor chip surface was conducted using the CAP Chip standard regeneration buffer (Cytiva).
The signal from the reference channel Fc1 (no ACE2 captured) was subtracted from that of Fc2, Fc3 and Fc4 to correct for bulk effect and differences in non-specific binding to a reference surface. The signal from each blank run (Fc2-ACE2 captured but no antigen) was subtracted to correct for differences in surface stability. The double referenced sensorgrams were fitted with the Langmuir (1:1) binding model (Equation 1a below) where the closeness of fit of the data to the model is evaluated using the Chi square value which describes the deviation between the experimental and fitted (observed and expected) curves (Equation 1b below).

T1 sequence (Q9BYF1 18-740 limits assumed): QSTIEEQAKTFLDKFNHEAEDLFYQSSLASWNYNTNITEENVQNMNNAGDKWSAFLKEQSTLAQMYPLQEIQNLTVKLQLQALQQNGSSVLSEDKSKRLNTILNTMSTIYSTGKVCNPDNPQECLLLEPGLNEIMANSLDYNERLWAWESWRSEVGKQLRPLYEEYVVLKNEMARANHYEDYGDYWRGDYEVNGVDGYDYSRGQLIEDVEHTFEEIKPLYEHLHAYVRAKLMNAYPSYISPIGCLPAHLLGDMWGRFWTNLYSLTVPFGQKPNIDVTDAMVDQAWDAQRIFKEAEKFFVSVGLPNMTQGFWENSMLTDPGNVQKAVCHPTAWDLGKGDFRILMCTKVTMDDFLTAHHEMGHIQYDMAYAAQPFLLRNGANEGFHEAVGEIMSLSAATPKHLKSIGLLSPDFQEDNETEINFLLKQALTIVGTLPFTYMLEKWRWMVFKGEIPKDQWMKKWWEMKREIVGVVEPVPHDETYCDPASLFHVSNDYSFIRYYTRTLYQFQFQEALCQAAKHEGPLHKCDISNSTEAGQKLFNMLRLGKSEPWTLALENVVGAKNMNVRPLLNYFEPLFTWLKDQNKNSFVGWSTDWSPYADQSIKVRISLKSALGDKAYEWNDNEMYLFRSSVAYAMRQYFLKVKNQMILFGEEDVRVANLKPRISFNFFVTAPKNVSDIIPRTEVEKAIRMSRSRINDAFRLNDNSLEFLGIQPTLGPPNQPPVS

Substance: CiNAVLCiiSWA[HArg][HyP]NSFCiii cyclised with TATA [BCY19024, Ac-(SEQ ID NO: 56)]
- Geometric Mean KD (nM) [1]: No sig. binding at top conc. tested

Substance: CiNAVLCiiSWA[HArg][dA]NSFCiii cyclised with TATA [BCY18256, Ac-(SEQ ID NO: 45)]
- Geometric Mean KD (nM) [2]: No sig. binding at top conc. tested

Substance: CiNDVLCiiSWA[HArg]ANSFCiii cyclised with TATA [BCY18659, Ac-(SEQ ID NO: 54)]
- Geometric Mean KD (nM) [2]: No sig. binding at top conc. tested

Substance: CiNEVLCiiSWA[HArg]ANSFCiii cyclised with TATA [BCY18783, Ac-(SEQ ID NO: 55)]
- Geometric Mean KD (nM) [2]: No sig. binding at top conc. tested
